Assays:
Format in all cases: in vivo
[1] = test system: larvae of the mustard beetle (Phaedon cochleariae); assay: Phaedon larvae test (Example C); conditions: active compound concentration of 0.1% in the preparation; cabbage leaves (Brassica oleracea) dipped
Description: Phaedon Larvae Test Solvent: 7 parts by weight of dimethylformamide Emulsifier: 1 part by weight of alkylaryl polyglycol ether […] Cabbage leaves (Brassica oleracea) are treated by being dipped into the preparation of active compound of the desired concentration and are populated with larvae of the mustard beetle (Phaedon cochleariae) while the leaves are still moist.

Aphis fabae = assay: Critical concentration test/root-systemic action, Aphis fabae (Example G); conditions: active compound concentration of 1.25 ppm in the soil; broad beans; populated after 7 days, evaluated after a further 7 days
Description: (§1) Critical Concentration Test/Root-systemic Action Test insect: Aphis fabae Solvent: 4 parts by weight of dimethylformamide Emulsifier: 1 part by weight of alkylaryl polyglycol ether To prepare a suitable preparation of active compound, 1 part by weight of active compound is mixed with the stated amount of solvent, the stated amount of emulsifier is added and the concentrate is diluted with water to the desired concentration. The preparation of active compound is mixed intimately with the soil. The concentration of the active compound in the preparation is virtually immaterial, only the amount by weight of active compound per volume unit of soil, which is stated in ppm (=mg/l), being decisive. The treated soil is filled into 250 ml pots and pre-germinated broad beans are planted in these. Thus, the active compound can be taken up by the plant roots from the soil and then transported into the leaves. To assess the root-systemic effect, the leaves are populated with the abovementioned test animals after 7 days. After a further 7 days, evaluation is carried out by counting or estimating the dead animals. The root-systemic action of the active compound is derived from the number of animals killed. It is 100% if all test animals have been killed and 0% when the number of test insects that are still alive is the same as for the untreated control.

Myzus persicae = assay: Critical concentration test/root-systemic action, Myzus persicae (Example H); conditions: active compound concentration of 1.25 ppm in the soil; broad beans; populated after 7 days, evaluated after a further 7 days
Description: as §1, with “Myzus persicae” for “Aphis fabae”, “[…],” for “(=mg/l),”

Cc1cc(Cl)ccc1-c1c(O)c(C)c(-c2ccccn2)oc1=O [Example 1, 3-(2-methyl-4-chloro-phenyl)-4-hydroxy-5-methyl-6-(pyrid-2-yl)-pyrone]
100 per cent: efficacy (kill in %) [1] | efficacy (root-systemic action) (Aphis fabae) | efficacy (root-systemic action) (Myzus persicae)
